Assays:
PSMA = target: T1, PSMA (Homo sapiens, UniProt Q04609); test: In vitro competition binding assay on LNCaP cells with ^18F-DCFPyL as radioligand
T1 construct: because it expresses PSMA endogenously and is commonly used to evaluate PSMA-targeting radiotracers; endogenous in cells; host or cells: LNCaP cells
Method: LNCaP cells were plated onto a 24-well poly-D-lysine coated plate for 48 h (400,000/well). […] Nonspecific binding was determined in the presence of 10 μM unlabeled DCFPyL. The assay mixtures were incubated for 1 h at 37°C with gentle agitation followed by 2 washes with cold HEPES buffered saline. A trypsin solution (0.25%, 400 μL) was then added to each well to harvest the cells. Radioactivity was measured by γ-counting, and Ki values were calculated using the “1 site—fit Ki” built-in model in Prism 7 (GraphPad).

[1] = Distribution coefficient (LogD7.4), shake flask method; format: physicochemical; details: n-octanol / phosphate buffer 0.1 M pH 7.4; n = 3
Method: LogD7.4 values were measured using the shake flask method. Briefly, an aliquot of ^18F-labeled tracer was added to a vial containing 2.5 mL of n-octanol and 2.5 mL of phosphate buffer (0.1 M, pH 7.4). The mixture was vortexed for 2 min and then centrifuged at 3,000g for 10 min. A sample of the n-octanol (0.1 mL) and buffer (0.1 mL) layers was counted using a γ-counter. Values of LogD7.4 were calculated using the following equation: LogD7.4 = log10 [(counts in n-octanol phase)/(counts in buffer phase)].

LNCaP xenografts = test: Ex vivo biodistribution and blocking studies in mice bearing LNCaP xenografts; details: for tumor uptake: LNCaP tumor
Method: Imaging and biodistribution experiments were performed using NODSCID IL2RγKO male mice. All experiments were conducted according to the guidelines established by the Canadian Council on Animal Care and approved by the Animal Ethics Committee of the University of British Columbia. Mice were anesthetized by inhalation with 2% isoflurane in oxygen and implanted subcutaneously with 1 × 10^7 LNCaP cells behind the left shoulder. The mice were imaged or used in biodistribution studies once the tumor reached 5–8 mm in diameter (5–6 wk).
For biodistribution and blocking studies, the mice were injected with 1–3 MBq of radiotracer. At 60 min, the mice were anesthetized with 2% isoflurane inhalation and euthanized by CO2 inhalation. Blood was withdrawn by cardiac puncture, and the organs and tissues of interest were collected, weighed, and counted using an automatic γ-counter (PerkinElmer). Uptake values were expressed as the percentage of the injected dose per gram of tissue (%ID/g).
A standard 1-way ANOVA was performed to determine whether statistically significant differences in tumor uptake occurred between radiotracers. Each radiotracer was compared with ^18F-DCFPyL using the Dunnett test (a many-to-one t test comparison). This analysis was also performed for kidney and blood activity and for tumor-to-blood and tumor-to-muscle ratios. Reported P values were adjusted for multiple comparisons. The analysis was performed using Prism 8 (GraphPad). […]
Statistical analyses were performed using GradPad prism 7. Multiple t tests were performed to compare biodistribution in unblocked and blocked mice, multiple comparisons were corrected using the Holm-Sidak method. The difference was considered statistically significant when p value was < 0.05.
Supplemental Table 1 – Complete biodistribution study for compounds [18F]1–3 […]
Tissue 1h 1h blocked 1h 1h blocked 1h 1h blocked
(%ID/g) n = 8 n = 4 n = 6 n = 4 n = 8 n = 5 […]
(1 picture or pasted object on this page, not shown here)

[2] = 1 h after injection, 1-way ANOVA, Dunnett test
[3] = 1 h blocked (coinjection of DCFPyL 0.5 mg)

T1 sequence (Q04609 whole entry): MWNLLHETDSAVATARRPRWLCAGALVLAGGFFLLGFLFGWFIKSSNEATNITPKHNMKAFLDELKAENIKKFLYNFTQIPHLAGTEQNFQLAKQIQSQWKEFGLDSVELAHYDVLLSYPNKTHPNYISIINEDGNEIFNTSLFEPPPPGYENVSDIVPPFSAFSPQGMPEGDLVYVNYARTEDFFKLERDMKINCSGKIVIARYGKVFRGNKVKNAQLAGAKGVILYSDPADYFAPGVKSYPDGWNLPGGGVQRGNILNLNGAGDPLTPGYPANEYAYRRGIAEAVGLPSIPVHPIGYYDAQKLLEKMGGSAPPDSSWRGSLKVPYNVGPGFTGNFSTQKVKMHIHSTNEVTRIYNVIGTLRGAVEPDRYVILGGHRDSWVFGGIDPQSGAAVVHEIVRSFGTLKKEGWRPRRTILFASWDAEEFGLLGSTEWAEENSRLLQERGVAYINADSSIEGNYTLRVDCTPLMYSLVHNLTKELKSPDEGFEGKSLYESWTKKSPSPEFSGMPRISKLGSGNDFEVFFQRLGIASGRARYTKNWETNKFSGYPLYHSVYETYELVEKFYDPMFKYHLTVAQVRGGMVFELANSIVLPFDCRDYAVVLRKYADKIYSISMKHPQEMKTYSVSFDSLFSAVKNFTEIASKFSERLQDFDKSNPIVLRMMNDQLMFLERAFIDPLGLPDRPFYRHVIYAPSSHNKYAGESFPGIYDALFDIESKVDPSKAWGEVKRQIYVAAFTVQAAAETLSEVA

## C[N+](C)(Cc1cn(CC(=O)NC[C@H]2CC[C@H](C(=O)N[C@@H](Cc3ccc4ccccc4c3)C(=O)NCCCC[C@H](NC(=O)N[C@@H](CCC(=O)O)C(=O)O)C(=O)O)CC2)nn1)C[B-](F)(F)F [^18F-5]
PSMA
  Ki: 1.14 ± 0.26 nM
[1]
  logD at 2 min: -3.52 ± 0.21
LNCaP xenografts; 1 h after injection
  intestinal activity compared with ^18F-DCFPyL: significantly higher intestinal activity than ^18F-DCFPyL
LNCaP xenografts; 1 h after injection, unblocked
  T/B (tumor-to-blood ratio): 17.12 ± 5.40
  T/K (tumor-to-kidney ratio): 0.21 ± 0.08
  T/M (tumor-to-muscle ratio): 49.67 ± 28.45
  adrenal uptake: 2.89 ± 1.94 %ID/g
  blood uptake: 0.89 ± 0.42 %ID/g
  bone uptake: 0.34 ± 0.14 %ID/g
  brain uptake: 0.04 ± 0.01 %ID/g
  fat uptake: 0.83 ± 0.33 %ID/g
  heart uptake: 0.31 ± 0.11 %ID/g
  intestine uptake: 12.96 ± 4.61 %ID/g
  kidney uptake: 73.86 ± 35.21 %ID/g
  liver uptake: 1.14 ± 0.48 %ID/g
  lung uptake: 1.21 ± 0.48 %ID/g
  muscle uptake: 0.36 ± 0.18 %ID/g
  pancreas uptake: 0.30 ± 0.17 %ID/g
  spleen uptake: 3.21 ± 1.73 %ID/g
  stomach uptake: 0.37 ± 0.45 %ID/g
  testes uptake: 0.74 ± 0.55 %ID/g
  tumor uptake: 13.96 ± 5.20 %ID/g
LNCaP xenografts; [2]
  tumor uptake compared with ^18F-DCFPyL: No statistically significant differences
LNCaP xenografts; [3]
  T/B (tumor-to-blood ratio): 0.95 ± 0.10
  T/K (tumor-to-kidney ratio): 0.41 ± 0.09
  T/M (tumor-to-muscle ratio): 2.85 ± 0.70
  adrenal uptake: 0.34 ± 0.09 %ID/g
  blood uptake: 0.44 ± 0.02 %ID/g
  bone uptake: 0.17 ± 0.03 %ID/g
  brain uptake: 0.02 ± 0.00 %ID/g
  fat uptake: 0.16 ± 0.06 %ID/g
  heart uptake: 0.15 ± 0.00 %ID/g
  intestine uptake: 12.36 ± 0.55 %ID/g
  kidney uptake: 1.04 ± 0.14 %ID/g
  liver uptake: 0.67 ± 0.13 %ID/g
  lung uptake: 0.39 ± 0.01 %ID/g
  muscle uptake: 0.15 ± 0.02 %ID/g
  pancreas uptake: 0.13 ± 0.06 %ID/g
  spleen uptake: 0.21 ± 0.02 %ID/g
  stomach uptake: 0.12 ± 0.10 %ID/g
  testes uptake: 0.24 ± 0.05 %ID/g
  tumor uptake: 0.41 ± 0.04 %ID/g

## C[N+](C)(Cc1cn(CC(=O)NCCOCCOCCC(=O)N[C@@H](Cc2ccc3ccccc3c2)C(=O)NCCCC[C@H](NC(=O)N[C@@H](CCC(=O)O)C(=O)O)C(=O)O)nn1)C[B-](F)(F)F [^18F-7]
PSMA
  Ki: 16.5 ± 5.5 nM
[1]
  logD at 2 min: -3.24 ± 0.03
LNCaP xenografts; 1 h after injection, unblocked
  T/B (tumor-to-blood ratio): 54.57 ± 38.49
  T/K (tumor-to-kidney ratio): 0.28 ± 0.22
  T/M (tumor-to-muscle ratio): 117.13 ± 52.06
  adrenal uptake: 0.81 ± 0.25 %ID/g
  blood uptake: 0.13 ± 0.08 %ID/g
  bone uptake: 0.10 ± 0.07 %ID/g
  brain uptake: 0.01 ± 0.01 %ID/g
  fat uptake: 0.27 ± 0.14 %ID/g
  heart uptake: 0.07 ± 0.02 %ID/g
  intestine uptake: 22.24 ± 2.79 %ID/g
  kidney uptake: 20.35 ± 9.85 %ID/g
  liver uptake: 0.83 ± 0.34 %ID/g
  lung uptake: 0.40 ± 0.13 %ID/g
  muscle uptake: 0.05 ± 0.01 %ID/g
  pancreas uptake: 0.13 ± 0.11 %ID/g
  spleen uptake: 0.75 ± 0.36 %ID/g
  stomach uptake: 0.21 ± 0.12 %ID/g
  testes uptake: 0.18 ± 0.05 %ID/g
LNCaP xenografts; [2]
  kidney accumulation compared with ^18F-DCFPyL: lower kidney accumulation
  tumor uptake compared with ^18F-DCFPyL: lower tumor uptake than ^18F-DCFPyL
  tumor-to-blood and tumor-to-muscle ratios compared with ^18F-DCFPyL: higher ratios
LNCaP xenografts; [3]
  T/B (tumor-to-blood ratio): 1.56 ± 0.87
  T/K (tumor-to-kidney ratio): 0.28 ± 0.12
  T/M (tumor-to-muscle ratio): 3.62 ± 3.62
  adrenal uptake: 0.06 ± 0.09 %ID/g
  blood uptake: 0.85 ± 1.37 %ID/g
  bone uptake: 0.16 ± 0.25 %ID/g
  brain uptake: 0.01 ± 0.01 %ID/g
  fat uptake: 0.02 ± 0.02 %ID/g
  heart uptake: 0.04 ± 0.01 %ID/g
  intestine uptake: 26.68 ± 9.98 %ID/g
  kidney uptake: 0.56 ± 0.18 %ID/g
  liver uptake: 0.73 ± 0.21 %ID/g
  lung uptake: 0.12 ± 0.04 %ID/g
  muscle uptake: 0.24 ± 0.37 %ID/g
  pancreas uptake: 0.06 ± 0.06 %ID/g
  spleen uptake: 0.15 ± 0.16 %ID/g
  stomach uptake: 1.55 ± 2.10 %ID/g
  testes uptake: 0.04 ± 0.01 %ID/g
  tumor uptake: 0.15 ± 0.06 %ID/g
LNCaP xenografts; 1 h after injection, unblocked, listed as 7
  tumor uptake: 5.1 ± 1.1 %ID/g
LNCaP xenografts; 1 h after injection, unblocked, listed as [18F]7
  tumor uptake: 5.09 ± 1.10 %ID/g

Reference: publication PMC6681697, “One-Step ^18F-Labeling and Preclinical Evaluation of Prostate-Specific Membrane Antigen Trifluoroborate Probes for Cancer Imaging” (Journal of Nuclear Medicine, 2019)
